{
  "source": "patent US5196512A",
  "about": "(priority 1989, dated 1993)",
  "key": {"[1]": {"test_system": "Peripheral blood mononucleate cells (PBMC)", "assay_type": "cell-based, human"}, "[2]": {"test_system": "T cell clones specific for TT3", "assay_type": "cell-based, human"}, "[3]": {"test_system": "T cell clones specific for TT3", "assay_type": "cell-based, human", "remark": "listed apart in the source"}, "[4]": {"test_system": "C57BL/6, CBA and DBA/2 mice", "conditions": "mouse, in vivo"}, "[5]": {"test_system": "lymph node cells", "assay_type": "cell-based, mouse"}, "[6]": {"test_system": "T cell clones", "assay_type": "cell-based, human"}, "[7]": {"test_system": "CBA, DBA/2 and C57BL/6 mice", "conditions": "CBA and DBA/2 mice; n between 3 and 40; cited from earlier work"}},
  "note": "Ends that are not written are not given here.",
  "data": [
    {"substance": "FNNFTVSFWLRVPKVSASHLE [TT3]", "values": [
      {"measurement": "in vitro response of PBMC of different HLA-typized individuals immunized with the tetanus toxin", "setting": "[1]", "value": "responded in vitro"},
      {"measurement": "share of all the T cells specific for the tetanus toxoid (TT)", "setting": "[1]", "value": "≤ 5", "unit": "%"},
      {"measurement": "proliferation of all the isolated clones in response to antigen presented by autologous APC cells", "setting": "[2]", "value": "proliferated"},
      {"measurement": "Independent restriction (class II MHC alleles able to present the peptide to at least one T cell clone)", "setting": "[3]", "value": "DR5 and DR9 and DR7 and DP2 and DP4 and DP? and DR5JVM/DP4"},
      {"measurement": "anti-TT3 antibody count after boosting", "setting": "[4]", "value": "increased"},
      {"measurement": "anti-TT3 antibody count with IFA compared with CFA", "setting": "[4]", "value": "same values"},
      {"measurement": "proliferative T cell response of lymph node cells", "setting": "[5]", "value": "good proliferative T cell response"}
    ]},
    {"substance": "tetanus toxoid [reference compound]", "values": [
      {"measurement": "proliferation of all the isolated clones in response to antigen presented by autologous APC cells", "setting": "[2]", "value": "proliferated"}
    ]},
    {"substance": "FNNFTVSFWLRVPK [TT200]", "values": [
      {"measurement": "recognition of the epitope by restricted T cell clones", "setting": "[6]", "value": "recognised by all other DR and DP allele restricted clones"}
    ]},
    {"substance": "H-(Asn-Ala-Asn-Pro)n -OH (H-NANP-OH; also: repeated n times) [(NANP)n]", "values": [
      {"measurement": "anti-CSP antibody response", "setting": "[7]", "value": "not able to induce"}
    ]}
  ]
}
